Species on record: Rattus norvegicus
Assay: Open TG-GATES - Regimen: Daily Repeat
Assay type: toxicity, organism-based, Sprague-Dawley
Design: regimen Daily Repeat, gender Male, age 6 weeks
Details: in vivo, po, route gavage; for APTT / Bas / Eos / Fbg / Hb / Ht / Lym / MCH / MCHC / MCV / Mono / Neu / PT / Plat / RBC / Ret / WBC: tissue Blood; for KIDNEY_L / KIDNEY_R / KIDNEY_TOTAL: tissue Kidney; for LIVER: tissue Liver
[1] = 0 mg/kg, […], tissue Plasma, dose level Control, time 28 day
[2] = 100 mg/kg, 72 h, dose level Low, time 3 day
[3] = 100 mg/kg, 72 h, tissue Plasma, dose level Low, time 3 day
[4] = 100 mg/kg, […], dose level Low, time 7 day
[5] = 100 mg/kg, […], dose level Low, time 14 day
[6] = 100 mg/kg, […], dose level Low, time 28 day
[7] = 100 mg/kg, […], tissue Plasma, dose level Low, time 7 day
[8] = 100 mg/kg, […], tissue Plasma, dose level Low, time 14 day
[9] = 100 mg/kg, […], tissue Plasma, dose level Low, time 28 day

## O=C(O)c1ccccc1Nc1ccccc1 [FENAMIC ACID]
[1]
  RALB: 2.8 g/dL
  TBIL: 0.05 mg/dL
  TC: 64.8 mg/dL
  TG: 134.8 mg/dL
  TP: 6.2 g/dL
  gamma-GTP: 1 IU/L
[2]
  TERMINAL_BW: 236.5 g
  APTT: 15.6 s
  Bas: 0.6%
  Eos: 1%
  Fbg: 286.4 mg/dL
  Hb: 13.5 g/dL
  Ht: 40.5%
  Lym: 79.6%
  MCH: 20.9 pg
  MCHC: 33.4%
  MCV: 62.6 fL
  Mono: 2%
  Neu: 16.8%
  PT: 14.2 s
  Plat: 122.4 x10_4/uL
  RBC: 647.6 x10_4/ul
  Ret: 7.2%
  WBC: 82.6 x10_2/uL
  KIDNEY_L: 1 g
  KIDNEY_R: 1 g
  KIDNEY_TOTAL: 2 g
  LIVER: 11.2 g
[3]
  A/G: 0.9
  ALP: 1990.6 IU/L
  ALT: 37.6 IU/L
  AST: 64.2 IU/L
  BUN: 13.8 mg/dL
  CRE: 0.2 mg/dL
  Ca: 11.7 mg/dL
  Cl: 106.2 meq/L
  GLC: 184.4 mg/dL
  IP: 6.9 mg/dL
  K: 4.2 meq/L
  LDH: 82 IU/L
  Na: 143.6 meq/L
  PL: 144.2 mg/dL
  RALB: 2.7 g/dL
  TC: 75.6 mg/dL
  TG: 72.2 mg/dL
  TP: 5.6 g/dL
  gamma-GTP: 1.2 IU/L
[4]
  TERMINAL_BW: 277.8 g
  APTT: 16 s
  Bas: 0.6%
  Eos: 1%
  Fbg: 288.2 mg/dL
  Hb: 13.4 g/dL
  Ht: 39.6%
  Lym: 73%
  MCH: 20.9 pg
  MCHC: 33.9%
  MCV: 61.5 fL
  Mono: 2.6%
  Neu: 22.8%
  PT: 13.9 s
  Plat: 114.4 x10_4/uL
  RBC: 642.8 x10_4/ul
  Ret: 5.7%
  WBC: 82.6 x10_2/uL
  KIDNEY_L: 1.2 g
  KIDNEY_R: 1.2 g
  KIDNEY_TOTAL: 2.3 g
  LIVER: 13 g
[5]
  TERMINAL_BW: 337.7 g
  APTT: 16.8 s
  Bas: 0.8%
  Eos: 1%
  Fbg: 308.8 mg/dL
  Hb: 14.4 g/dL
  Ht: 41.6%
  Lym: 75.4%
  MCH: 20.8 pg
  MCHC: 34.5%
  MCV: 60.3 fL
  Mono: 2.4%
  Neu: 20.2%
  PT: 13.7 s
  Plat: 118.3 x10_4/uL
  RBC: 689.4 x10_4/ul
  Ret: 4.5%
  WBC: 82.2 x10_2/uL
  KIDNEY_L: 1.3 g
  KIDNEY_R: 1.2 g
  KIDNEY_TOTAL: 2.5 g
  LIVER: 14.7 g
[6]
  TERMINAL_BW: 419.6 g
  APTT: 17.2 s
  Bas: 0.2%
  Eos: 1%
  Fbg: 305.2 mg/dL
  Hb: 15.1 g/dL
  Ht: 43.9%
  Lym: 78.2%
  MCH: 19.4 pg
  MCHC: 34.5%
  MCV: 56.2 fL
  Mono: 2%
  Neu: 18%
  PT: 14.3 s
  Plat: 103.7 x10_4/uL
  RBC: 780.8 x10_4/ul
  Ret: 2.6%
  WBC: 94 x10_2/uL
  KIDNEY_L: 1.5 g
  KIDNEY_R: 1.5 g
  KIDNEY_TOTAL: 3 g
  LIVER: 16.7 g
[7]
  A/G: 0.9
  ALP: 1790.8 IU/L
  ALT: 37 IU/L
  AST: 63.4 IU/L
  BUN: 13.4 mg/dL
  CRE: 0.2 mg/dL
  Ca: 11.4 mg/dL
  Cl: 105.6 meq/L
  GLC: 182 mg/dL
  IP: 6.8 mg/dL
  K: 4.3 meq/L
  LDH: 94.6 IU/L
  Na: 142.8 meq/L
  PL: 160.6 mg/dL
  RALB: 2.7 g/dL
  TC: 80.2 mg/dL
  TG: 136.8 mg/dL
  TP: 5.8 g/dL
  gamma-GTP: 1 IU/L
[8]
  A/G: 0.9
  ALP: 1703.6 IU/L
  ALT: 35.6 IU/L
  AST: 63.6 IU/L
  BUN: 14.2 mg/dL
  CRE: 0.3 mg/dL
  Ca: 11.1 mg/dL
  Cl: 105.2 meq/L
  GLC: 179.4 mg/dL
  IP: 7 mg/dL
  K: 4.2 meq/L
  LDH: 95 IU/L
  Na: 143.4 meq/L
  PL: 158.4 mg/dL
  RALB: 2.7 g/dL
  TC: 80.8 mg/dL
  TG: 109.2 mg/dL
  TP: 5.8 g/dL
  gamma-GTP: 1 IU/L
[9]
  A/G: 0.8
  ALP: 1187.4 IU/L
  ALT: 33.4 IU/L
  AST: 59.2 IU/L
  BUN: 14.2 mg/dL
  CRE: 0.3 mg/dL
  Ca: 11 mg/dL
  Cl: 105.6 meq/L
  GLC: 179.6 mg/dL
  IP: 6.5 mg/dL
  K: 3.9 meq/L
  LDH: 87 IU/L
  Na: 144.6 meq/L
  PL: 154.2 mg/dL
  RALB: 2.8 g/dL

Source: ChEMBL document CHEMBL3885861, “Open TG-GATES”
